Test results from paper PMC5478727, “A Novel Small Molecule GDNF Receptor RET Agonist, BT13, Promotes Neurite Growth from Sensory Neurons in Vitro and Attenuates Experimental Neuropathy in the Rat” (Frontiers in Pharmacology, 2017).

Tests used:
[1] = molecular target: T1, Protein Serine/Threonine Phosphatase, PP2A (Homo sapiens, UniProt P67775); test: CEREP Protein Serine/Threonine Phosphatase, PP2A; type: biochemical
T1 construct: purchased CEREP (contract assay) 3953

[2] = molecular target: COMT (catechol-O-methyl transferase); test: CEREP COMT (catechol-O-methyl transferase); type: biochemical; details: reference compound; Cat. No. 0457
[3] = test system: adult rat lumbar DRG sensory neurons; test: Neurite outgrowth from cultured DRG neurons; type: cell-based; details: NGF 10 ng/ml
Protocol: Cultured lumbar DRG (L3–L5) neurons were prepared using a published method (O'Mullane et al., [2013]). After plating onto poly-L-ornithine (5 μg/ml)/laminin (5 μg/ml) coated coverslips for 1 h, DRG neurons were cultured for 24–30 h in fresh Neurobasal A/B27. GFLs, BT13, NGF, and vehicle control were added at the start of this period for a 24–30 h treatment, except when preceded by pre-treatment (1 h) with inhibitors (50 μM LY294002; 2 μM SU6656, […]; Biomol Research Laboratories, Plymouth Meeting, PA, USA). DRG neurons were then fixed (4% paraformaldehyde) and processed for immunocytochemistry with 1:200 Mouse anti-β III tubulin/AlexaFluor 594 (Sigma-Aldrich Cat# T8660 RRID:AB_477590) and 1:5,000 rabbit anti-calcitonin gene-related peptide/AlexaFluor 488 (Sigma-Aldrich Cat# C8198 RRID:AB_259091) and DAPI for nuclear staining (0.5 μg/ml, Molecular Probes). Image analysis of multichannel 12 bit Zeiss .ZVI or .TIF files (captured with a Zeiss Imager.M1/MRm camera/Zen software; Carl Zeiss Australia, North Ryde, NSW, Australia) was then performed by a researcher blinded to the experimental condition. Neurite initiation was measured by a single parameter (proportion of neurons with neurites longer than the soma diameter). Neurite elongation was measured by batch processing (HCA-Vision software; CSIRO Mathematical and Information Sciences, North Ryde, NSW, Australia) to obtain four parameters—Root number: number of primary neurites; Maximum length: length of longest neurite; Branch points: number of neurite branch points; and Total length: sum of neurite lengths (Kalous and Keast, [2010]; Kalous et al., [2012]). The number of neurons of each immunocytochemical class counted on each coverslip (technical replicates) was 50 for neurite initiation and 20 for neurite elongation. A minimum of three cultures from different rats (biological replicates) were analyzed for each treatment group.

[4] = test system: Akt and Erk phosphorylation in MG87TrkA; test: Erk1/2 and Akt phosphorylation assay in MG87TrkA cells; type: cell-based, murine; details: BT13 10–100 μM, NGF positive control
Protocol: (§1) MG87RET, MG87TrkA, or MG87TrkB were plated on 35 mm tissue culture dishes 1–2 days before the experiment to achieve 90–95% of confluency of the cells at the day of stimulation with tested substances. If necessary, cells were transfected with 4 μg/well of GFRα1-, GFRα3-, or green fluorescent protein (GFP)-expressing plasmid using Lipofectamine 2000 (Invitrogen) for DNA delivery as described by manufacturer. Before the experiment cells were starved in serum-free DMEM containing 15 mM HEPES, pH 7.2 and 1% DMSO for 4 h and stimulated with BT13 or neurotrophic factors. Then cells were washed once with ice-cold PBS containing 1 mM Na3VO4 and 1 mM NaF and lysed on ice in 1 ml per well of RIPA-modified buffer (50 mM Tris-HCl, pH 7.4, 150 mM NaCl, 1 mM EDTA, 1% NP-40, 1% TX-100, 10% glycerol, EDTA-free protease inhibitor cocktail (Roche), 1 mM Na3VO4, 2.5 mg/ml of sodium deoxycholate, 1 mM NaF). Plates were incubated at +4°C on the horizontal shaker for 30 min with vigorous shaking. Afterwards, 80–100 μl aliquot was taken from each well to prepare whole cell lysates. This aliquot was mixed with equal volume of 2x Laemmli loading buffer (4% SDS, 20% glycerol, 10% 2-mercaptoethanol, 0.004% bromphenol blue, 0.125 M Tris HCl, pH 6.8) and boiled for 10 min at 100°C. Remaining cell lysates were used for immunoprecipitation of RET or Trk receptors. […]

[5] = test system: TrkA; test: TrkA phosphorylation assay in MG87TrkA cells; type: cell-based; details: BT13 10–100 μM, NGF positive control
Protocol: as §1

[6] = molecular target: T2, TrkB (Rattus norvegicus, UniProt Q63604); test: TrkB phosphorylation assay in MG87TrkB cells; type: cell-based; details: BT13 10–100 μM, BDNF positive control
T2 construct: expressed in transfected cells; host or cells: MG87 murine fibroblasts (MG87TrkB)
T2 sequence (Q63604 32-821): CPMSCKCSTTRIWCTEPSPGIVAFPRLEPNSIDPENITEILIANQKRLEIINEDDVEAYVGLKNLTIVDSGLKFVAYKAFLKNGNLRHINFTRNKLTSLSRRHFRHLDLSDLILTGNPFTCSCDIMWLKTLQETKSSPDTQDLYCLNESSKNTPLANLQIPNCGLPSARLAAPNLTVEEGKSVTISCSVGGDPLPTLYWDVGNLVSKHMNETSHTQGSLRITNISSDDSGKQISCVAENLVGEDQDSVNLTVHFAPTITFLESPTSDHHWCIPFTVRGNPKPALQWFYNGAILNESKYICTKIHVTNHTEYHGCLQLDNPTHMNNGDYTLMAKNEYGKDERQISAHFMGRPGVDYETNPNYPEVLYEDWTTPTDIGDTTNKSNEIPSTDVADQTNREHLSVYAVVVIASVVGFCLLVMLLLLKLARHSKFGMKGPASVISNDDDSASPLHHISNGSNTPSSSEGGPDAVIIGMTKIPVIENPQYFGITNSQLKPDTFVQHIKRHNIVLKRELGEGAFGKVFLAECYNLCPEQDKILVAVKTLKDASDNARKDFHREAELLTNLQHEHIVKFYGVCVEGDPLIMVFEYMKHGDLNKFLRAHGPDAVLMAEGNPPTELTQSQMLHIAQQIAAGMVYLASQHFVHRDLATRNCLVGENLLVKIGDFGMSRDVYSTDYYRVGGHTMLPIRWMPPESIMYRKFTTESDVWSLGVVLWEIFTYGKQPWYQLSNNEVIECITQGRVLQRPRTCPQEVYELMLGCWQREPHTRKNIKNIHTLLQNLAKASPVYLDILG
Protocol: as §1

[7] = test system: Akt and Erk phosphorylation in MG87TrkB; test: Erk1/2 and Akt phosphorylation assay in MG87TrkB cells; type: cell-based, murine; details: BT13 10–100 μM, BDNF positive control
Protocol: as §1

[8] = CGRP-positive neurons, vs control, BT13 100 ng/ml

T1 sequence (P67775 whole entry): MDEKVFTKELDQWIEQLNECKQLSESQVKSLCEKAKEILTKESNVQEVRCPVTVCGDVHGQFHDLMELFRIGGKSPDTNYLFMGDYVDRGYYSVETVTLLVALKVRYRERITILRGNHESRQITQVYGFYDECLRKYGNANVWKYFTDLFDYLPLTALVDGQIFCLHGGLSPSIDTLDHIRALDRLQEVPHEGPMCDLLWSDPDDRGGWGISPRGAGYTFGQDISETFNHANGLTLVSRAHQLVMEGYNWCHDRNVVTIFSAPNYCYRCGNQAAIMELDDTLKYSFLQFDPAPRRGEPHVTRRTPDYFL

## COC[C@@H]([C@H](O)[C@H](O)C(=O)NCC[C@H](C)c1nc(/C=C/C[C@@H]2O[C@]3(C[C@@H](O)[C@@H]2C)O[C@H]([C@H](C[C@H](O)[C@H](C)[C@H](O)[C@H](C)/C=C(C)/C(C)=C/C=C/C(C)=C\C#N)OC)[C@H](OP(=O)(O)O)C3(C)C)co1)N(C)C [Calyculin A, reference compound]
[1]
  IC50: 0.49 nM

## O=C(c1cc(O)c(O)c([N+](=O)[O-])c1)c1ccccc1F [Ro 41-0960, reference compound]
[2]
  IC50: 28 nM

## nerve growth factor [NGF]
[3]; CGRP-negative neurons, ARTN 30 ng/ml, BT13 100 ng/ml
  neurite initiation or extension: no effect
[3]; CGRP-positive neurons, ARTN 30 ng/ml, BT13 100 ng/ml, overnight
  neurite initiation: significantly increased
[3]; CGRP-positive neurons, vs control
  neurite elongation, root number, mean difference: 3 ± 1
[3]; [8]
  neurite elongation, branch points, mean difference: 48 ± 3
  neurite elongation, maximum length, mean difference: 99 ± 8 μm
  neurite elongation, total length, mean difference: 1,421 ± 108 μm
[3]; ARTN 30 ng/ml, BT13 100 ng/ml
  proportion of DRG neurons that expressed CGRP in culture: did not alter
[4]
  Akt and Erk phosphorylation: promoted Akt and Erk phosphorylation
[5]
  TrkA phosphorylation, Western blotting: responded

B1: brain-derived neurotrophic factor (protein, UniProt P23560 19-247, looked up)
Neurotrophic factor BDNF …: APMKEANIRGQGGLAYPGVRTHGTLESVNGPKAGSRGLTSLADTFEHVIEELLDEDQKVRPNEENNKDADLYTSRVMLSSQVPLEPPLLFLLEEYKNYLDAANMSMRVRRHSDPARRGELSVCDSISEWVTAADKKTAVDMSGGTVTVLEKVPVSKGQLKQYFYETKCNPMGYTKEGCRGIDKRHWNSQCRTTQSYVRALTMDSKKRIGWRFIRIDTSCVCTLTIKRGR
notes: neurotrophin, natural ligand of TrkB
[6]
  TrkB phosphorylation, Western blotting: responded
[7]
  Akt and Erk phosphorylation: promoted Akt and Erk phosphorylation
